For assay [1], the system named is Δa-syn(103–140). Put plainly: Truncated a-syn (103-140 lacking) HA immunofluorescence in rat cortical neurons. The assay is classed as cell-based. The following applies: a-syn lacking amino acids 103–140. The source says: Adeno-associated virus (AAV) of a 1/2 serotype was used to express A53T a-syn (AAV-A53T), a truncated version of A53T a-syn lacking amino acids 103–140 (Δa-syn(103–140)), and WT a-syn, fused to either the N-terminal half of YFP (AAV-V1S) or the C-terminal half of YFP (AAV-SV2), all under the control of the CAG promoter, a hybrid of the chicken beta-actin (CBA) promoter fused with the cytomegalovirus (CMV) immediate early enhancer sequence (GeneDetect Ltd.)[46].
Pregnant rats (E17) of the Sprague-Dawley strain were purchased from Envigo. Embryos were surgically removed from the mothers and cortices dissected in Hanks Balanced salt solution (Gibco). […]
After fixation, cells were permeabilized with 0.2% Triton-X-100 for 15 min, washed three times with PBS and then incubated with blocking solution (1% BSA, 22.52 mg/mL glycine, 0.1% Tween-20 in PBS or 0.4% saponin, 1% BSA, and 5% goat or donkey serum in PBS) for 1 h. […] Following another three washes with PBS, nuclei were counterstained with DAPI (ThermoFisher) and then coverslips were mounted on slides using Dako fluorescence mounting medium (Agilent) and sealed using clear nail varnish.

In assay [2] the test system is V1S/SV2 a-syn rats. Put plainly: AAV-V1S/SV2 a-syn oligomer rat model. The assay is classed as in vivo. As to the method:
Adult female Sprague-Dawley rats (250–280 g; Envigo) were pair-housed in cages with wood bedding and had access to food and water ad libitum. The animal colony was maintained in a regular 12 h light/dark cycle. All procedures were approved by the University Health Network Animal Care Committee in accordance with guidelines and regulations set by the Canadian Council on Animal Care (AUP #3818).
Animals were secured in a stereotactic frame under isoflurane/oxygen anesthesia and ketoprofen (5 mg/kg) analgesia. The surgical site was shaved and sterilized with iodine/betadine prior to making a 2 cm incision along the midline. The scalp was exposed and a unilateral injection targeting the SN was performed at coordinates AP −5.2 mm, ML −2 mm and DV −7.5 mm with respect to the bregma as a point of reference. For each animal, a total volume of 2 μl of virus was injected at a rate of 0.5 μl/min using a microinjection pump and 10 μl Hamilton syringe with a 26-gauge needle. […] At the end of virus injection, the needle remained in place for 5 min before gradual removal.
Sections were then incubated in blocking solution (1% or 2% BSA, 10% normal goat serum in PBS-T) for 1 h. After blocking, sections were incubated with primary antibodies in antibody solution (2% normal goat serum in PBS-T) overnight at RT. Sections were then washed in PBS or PBS-T and incubated with secondary antibodies diluted in antibody solution for 1 h in the dark at room temperature. Sections were then mounted onto glass slides and allowed to dry and then Dako fluorescence mounting medium (Agilent) was applied, followed by coverslips.
Confocal images of immunofluorescent staining were acquired with a Zeiss LSM880 confocal microscope equipped with 405, 488, 555, and 639 nm laser lines. All images were taken within the linear range at constant gain and pinhole settings at optimal resolution settings determined by the software. For primary cortical neurons and iPSC-derived dopaminergic neurons, the software was programmed to acquire an image every 1 μm for a total of 11 μm, capturing all of the neurons visible in the z-plane in each field of view using a ×63 objective. At least 30 images were acquired for each treatment group from three independent experiments. For animal experiments, the whole midbrain or striatum regions were imaged using a ×5 or ×10 objective. Ten serial coronal midbrain sections were imaged per animal, separated by 240 μm intervals. […]
Confocal images of immunofluorescent staining of midbrain sections were processed using HALO software (Indica Labs), which is a well validated tool for automatic quantification of neurons in brain tissue sections[70]–[72]. […] Fluorescent intensity and area were then assessed in this ROI.

Several values for one entry are separate records, joined by “and”; a condition that tells them apart may be missing. Equal values may be shown once.

For DEEIERQLKALG [PDpep1.3], the “Effect on truncated a-syn levels” value in assay [1] was “did not reduce levels of this truncated a-syn”. Besides, the “Effect on a-syn oligomer levels, YFP positive area” value in assay [2] (6 weeks post-injection, SN) is “significant reduction in a-syn oligomer levels”. For the same sequence, in assay [2] (V1S/SV2, 6 weeks, individual rats), the “TH fluorescence in striatum” value was 0.2276 and 0.1447 and 0.1385 and 0.1997 and 0.2935 and 0.176 and 0.1626 and 0.2047 and 0.2584 and 0.2974. For the same sequence, the “YFP mean fluorescence intensity in TH+ and RFP+ SN cells” value in assay [2] (V1S/SV2, 6 weeks, n = 8–9 rats/group) stood at 0.063 ± 0.0167 RFU. Also, the “Effect on pS129 a-syn in striatum” value in assay [2] (V1S/SV2 rats) is given as “reduced pS129 a-syn accumulation in the striatum”.

The values above are taken from paper PMC10115881, “Disrupting the α-synuclein-ESCRT interaction with a peptide inhibitor mitigates neurodegeneration in preclinical models of Parkinson’s disease” (Nature Communications, 2023).
